# Measured values taken from patent US9150526B2, “Biaryl-propionic acid derivatives and their use as pharmaceuticals” (SANOFI, priority 2013, dated 2015).
# Test system: Recombinant human cathepsin A
# Assay: Cathepsin A inhibitory activity (Bodipy FL-bradykinin substrate, microfluidic capillary electrophoresis)
# Format: biochemical
# Details: read-out: CATH A IC50
# Method: Pharmacological Tests a) Cathepsin a Inhibitory Activity
# Recombinant human cathepsin A (residues 29-480, with a C-terminal 10-His tag; R&D Systems, #1049-SE) was proteolytically activated with recombinant human cathepsin L (R&D Systems, #952-CY). Briefly, cathepsin A was incubated at 10 μg/ml with cathepsin L at 1 μg/ml in activation buffer (25 mM 2-(morpholin-4-yl)-ethanesulfonic acid (MES), pH 6.0, containing 5 mM dithiothreitol (DTT)) for 15 min at 37° C.
# The activated cathepsin A was diluted in assay buffer (25 mM MES, pH 5.5, containing 5 mM DTT) and mixed with the test compound (dissolved in assay buffer containing (v/v) 3% DMSO) or, in the control experiments, with the vehicle in a multiple assay plate. After incubation for 15 min at room temperature, as substrate then bradykinin carrying an N-terminal ®Bodipy FL (4,4-difluoro-5,7-dimethyl-4-bora-3a,4a-diaza-s-indacene-3-propionyl) label (JPT Peptide Technologies GmbH; dissolved in assay buffer) was added to the mixture. The final concentration of cathepsin A was 833 ng/ml and the final concentration of labeled bradykinin 2 μM. After incubation for 15 min at room temperature the reaction was stopped by the addition of stop buffer (130 mM 2-(4-(2-hydroxy-ethyl)-piperazin-1-yl)-ethanesulfonic acid, pH 7.4, containing (v/v) 0.013% ®Triton X-100, 0.13% Coating Reagent 3 (Caliper Life Sciences), 6.5% DMSO and 20 μM ebelactone B (Sigma, # E0886)).
# Uncleaved substrate and product were then separated by a microfluidic capillary electrophoresis on a LabChip® 3000 Drug Discovery System (12-Sipper-Chip; Caliper Life Sciences) and quantified by determination of the respective peak areas. Substrate turnover was calculated by dividing product peak area by the sum of substrate and product peak areas, and the enzyme activity and the inhibitory effect of the test compound thus quantified.
smiles,measurement,value
COc1cccc(OC)c1-c1cccc(C(CC(=O)O)c2ncc(C)s2)c1 (centres unmarked) [compound 51],IC50,11 nM
COc1ccc(Cl)cc1-c1cc(C(CC(=O)O)c2nnc(C)o2)cc(C(F)(F)F)c1 (centres unmarked) [compound 209],IC50,17 nM
COc1ccc(OC(F)(F)F)cc1-c1cccc(C(CC(=O)O)c2ncc(C)s2)c1 (centres unmarked) [compound 60],IC50,269 nM
COc1ccc(S(C)(=O)=O)cc1-c1cc(Cl)cc(C(CC(=O)O)c2nnc(C)o2)c1 (centres unmarked) [compound 170],IC50,109 nM
COc1cc(C)cc(OC)c1-c1cc(F)cc(C(CC(=O)O)c2ncc(C)s2)c1 (centres unmarked) [compound 99],IC50,28 nM
COc1cc(C(F)(F)F)ccc1-c1cccc(C(CC(=O)O)c2nccs2)c1 (centres unmarked) [compound 48],IC50,2280 nM
COc1cccc(OC)c1-c1cncc(C(CC(=O)O)c2nnc(C)o2)c1 (centres unmarked) [compound 184],IC50,160 nM
COc1cccc(Cl)c1-c1cc(C(CC(=O)O)c2nnc(C)o2)cc(C(F)(F)F)c1 (centres unmarked) [compound 214],IC50,17 nM
COc1ccc(Cl)cc1-c1cccc(C(CC(=O)O)c2ncc(C)s2)c1 (centres unmarked) [compound 62],IC50,262 nM
COc1cccc(F)c1-c1cccc(C(CC(=O)O)c2nnc(C)o2)c1 (centres unmarked) [compound 145],IC50,116 nM
COc1ccccc1-c1ccc(OC)c(C(CC(=O)O)c2ncc(C)s2)c1 (centres unmarked) [compound 66],IC50,4410 nM
COC(=O)c1ccc(OC)c(-c2cccc(C(CC(=O)O)c3nccs3)c2)c1 (centres unmarked) [compound 23],IC50,140 nM
COc1cccc(Cl)c1-c1cncc(C(CC(=O)O)c2nnc(C)o2)c1 (centres unmarked) [compound 199],IC50,3560 nM
COc1c(F)cccc1-c1cccc(C(CC(=O)O)c2nccs2)c1 (centres unmarked) [compound 42],IC50,1040 nM
COc1ccc(F)cc1-c1cncc(C(CC(=O)O)c2nnc(C)o2)c1 (centres unmarked) [compound 192],IC50,7070 nM
COc1ccc(C(C)C)cc1-c1cccc([C@@H](CC(=O)O)c2nnc(C)o2)c1 [compound 185],IC50,27 nM
COc1cc(F)ccc1-c1cccc(C(CC(=O)O)c2nccs2)c1 (centres unmarked) [compound 37],IC50,503 nM
COc1cccc(OC)c1-c1cc(Cl)cc(C(CC(=O)O)c2ncc(C)s2)c1 (centres unmarked) [compound 10],IC50,7 nM
COc1cccc(F)c1-c1cncc(C(CC(=O)O)c2nnc(C)o2)c1 (centres unmarked) [compound 195],IC50,3900 nM
COc1ccc(OC)c(-c2cc(C(CC(=O)O)c3nnc(C)o3)cc(C(F)(F)F)c2)c1 (centres unmarked) [compound 201],IC50,14 nM
COc1ccc(F)c(F)c1-c1cccc(C(CC(=O)O)c2nccs2)c1 (centres unmarked) [compound 27],IC50,156 nM
COc1cccc(CO)c1-c1cc(C(CC(=O)O)c2nnc(C)o2)cc(C(F)(F)F)c1 (centres unmarked) [compound 219],IC50,73 nM
O=C(O)CC(c1cccc(-c2ccccc2OC(F)(F)F)c1)c1nccs1 (centres unmarked) [compound 43],IC50,1230 nM
O=C(O)CC(c1cc(F)cc(-c2ccccc2OC(F)(F)F)c1)c1ncco1 (centres unmarked) [compound 130],IC50,466 nM
COc1ccc(C#N)cc1-c1cccc(C(CC(=O)O)c2nccs2)c1 (centres unmarked) [compound 39],IC50,618 nM
COc1ccc(OC)c(-c2cccc(C(CC(=O)O)c3nnc(C)o3)c2)c1 (centres unmarked) [compound 138],IC50,41 nM
COc1ccc(Cl)cc1-c1cc(Cl)cc(C(CC(=O)O)c2ncc(C)s2)c1 (centres unmarked) [compound 8],IC50,34 nM
COc1ccc(CO)cc1-c1cc(Cl)cc(C(CC(=O)O)c2ncc(C)s2)c1 (centres unmarked) [compound 77],IC50,29 nM
COc1cccc(C#N)c1-c1cc(Cl)cc(C(CC(=O)O)c2ncc(C)s2)c1 (centres unmarked) [compound 88],IC50,103 nM
COc1ccc(-c2cc(F)cc(C(CC(=O)O)c3ncc(C)s3)c2)c(OC)c1 (centres unmarked) [compound 120],IC50,199 nM
COc1ccc(OC(F)(F)F)cc1-c1cc(F)cc(C(CC(=O)O)c2ncco2)c1 (centres unmarked) [compound 122],IC50,222 nM
COc1ccccc1-c1cc(Cl)cc(C(CC(=O)O)c2ncc(C)s2)c1 (centres unmarked) [compound 75],IC50,21 nM
COc1ccccc1-c1cccc(C(CC(=O)O)c2nnc(C)o2)c1 (centres unmarked) [compound 140],IC50,61 nM
COc1ccc(OC)c(-c2cccc(C(CC(=O)O)c3ncc(C)s3)c2)c1 (centres unmarked) [compound 54],IC50,94 nM
COc1ccc(C(C)(C)C)cc1-c1cccc(C(CC(=O)O)c2ncco2)c1 (centres unmarked) [compound 13],IC50,103 nM
COc1ccc(CO)cc1-c1cccc(C(CC(=O)O)c2ncc(C)s2)c1 (centres unmarked) [compound 57],IC50,131 nM
COc1ccc(C(C)C)cc1-c1cc(C(CC(=O)O)c2nnc(C)o2)cc(C(F)(F)F)c1 (centres unmarked) [compound 204],IC50,31 nM
COc1cc(F)ccc1-c1cc(C(CC(=O)O)c2nnc(C)o2)cc(C(F)(F)F)c1 (centres unmarked) [compound 200],IC50,35 nM
COc1ccc(CO)cc1-c1cccc(C(CC(=O)O)c2nnc(C)o2)c1 (centres unmarked) [compound 141],IC50,72 nM
COc1cccc(F)c1-c1cccc(C(CC(=O)O)c2ncc(C)s2)c1 (centres unmarked) [compound 59],IC50,171 nM
COc1cc(F)ccc1-c1cc(F)cc(C(CC(=O)O)c2ncc(C)s2)c1 (centres unmarked) [compound 123],IC50,246 nM
COc1ccc(CO)cc1-c1cc(C(CC(=O)O)c2nnc(C)o2)cc(C(F)(F)F)c1 (centres unmarked) [compound 221],IC50,22 nM
COc1ccc(Cl)cc1-c1ccc(OC)c(C(CC(=O)O)c2ncc(C)s2)c1 (centres unmarked) [compound 65],IC50,3050 nM
COc1cccc(CO)c1-c1cc(F)cc(C(CC(=O)O)c2nnc(C)o2)c1 (centres unmarked) [compound 167],IC50,400 nM
COc1c(Cl)cccc1-c1cccc(C(CC(=O)O)c2nccs2)c1 (centres unmarked) [compound 44],IC50,1280 nM
COc1ccc2c(c1-c1cc(Cl)cc(C(CC(=O)O)c3nnc(C)o3)c1)OC(C)(C)C2 (centres unmarked) [compound 157],IC50,17 nM
COc1ccc(C)cc1-c1cc(Cl)cc(C(CC(=O)O)c2nnc(C)o2)c1 (centres unmarked) [compound 169],IC50,17 nM
COc1cc(F)ccc1-c1cccc(C(CC(=O)O)c2nnc(C)o2)c1 (centres unmarked) [compound 146],IC50,129 nM
COc1ccc(F)cc1-c1cc(Cl)cc(C(CC(=O)O)c2ncc(C)s2)c1 (centres unmarked) [compound 79],IC50,38 nM
COc1ccc(F)c(F)c1-c1cc(Cl)cc(C(CC(=O)O)c2ncc(C)s2)c1 (centres unmarked) [compound 78],IC50,37 nM
COc1cccc(F)c1-c1cc(F)cc(C(CC(=O)O)c2ncc(C)s2)c1 (centres unmarked) [compound 101],IC50,56 nM
COc1ccc(OC)c(-c2cc(Cl)cc(C(CC(=O)O)c3ncc(C)s3)c2)c1OC (centres unmarked) [compound 72],IC50,18 nM
COc1ccc(Cl)cc1-c1cc(F)cc(C(CC(=O)O)c2nnc(C)o2)c1 (centres unmarked) [compound 166],IC50,89 nM
COc1ccc(F)cc1-c1cccc(C(CC(=O)O)c2nnc(C)o2)c1 (centres unmarked) [compound 139],IC50,60 nM
COc1cccc(F)c1-c1cccc(C(CC(=O)O)c2nccs2)c1 (centres unmarked) [compound 26],IC50,148 nM
COc1ccc(C(C)C)cc1-c1cccc(C(CC(=O)O)c2nnc(C)o2)c1 (centres unmarked) [compound 64],IC50,49 nM
COc1c(C)cccc1-c1cccc(C(CC(=O)O)c2nnc(C)o2)c1 (centres unmarked) [compound 151],IC50,571 nM
COc1ccc(C(C)C)cc1-c1cc(F)cc(C(CC(=O)O)c2ncc(C)s2)c1 (centres unmarked) [compound 119],IC50,195 nM
COc1cc(C)cc(OC)c1-c1cncc(C(CC(=O)O)c2nnc(C)o2)c1 (centres unmarked) [compound 186],IC50,343 nM
COc1cccc(Cl)c1-c1cccc(C(CC(=O)O)c2ncc(C)s2)c1 (centres unmarked) [compound 58],IC50,155 nM
COc1cccc(C(=O)N2CCCC2)c1-c1cc(Cl)cc(C(CC(=O)O)c2nnc(C)o2)c1 (centres unmarked) [compound 171],IC50,4210 nM
COc1ccc(C(C)(C)C)cc1-c1cc(Cl)cc(C(CC(=O)O)c2ncc(C)s2)c1 (centres unmarked) [compound 85],IC50,55 nM
